According to patent publication US10208012B2, “Compounds for treating inflammatory and hyperproliferative diseases” (Board of Regents, The University of Texas System, priority 2013, dated 2019):
Like-named read-outs stand apart in the source and are kept apart here. Blank lines part the entries; values can stand above or below the compound they belong to.

Key:
[1] = test system: mantle cell lymphoma cell lines (Mino and Z-138); assay: Thymidine incorporation proliferation assay in mantle cell lymphoma cell lines; type: cell-based
Experimental: (§1) FIG. 1. Effect of Tumeric Derivatives in MCL cells. Six TMX analogs were screened in two mantle cell lymphoma cell lines (Mino and Z-138). These assays were performed by treating cells with increasing doses of TMX (0-25 μM) and analyzed by thymidine incorporation (proliferation assay).
as §1, with “2.” for “1.”, “Turmerax Compounds” for “Tumeric Derivatives”, “MCLs. 10 additional” for “MCL cells. Six”, “analogs derived from compound #6 (from FIG. 1)” for “analogs”
FIG. 3. Effect of Turmerax Compounds in MCLs. Four compounds from FIG. 2 were selected to analyze at concentrations below 1 μM for cell growth inhibition in vitro.
Malignant lymphoma continues to represent a major health issue in the US and worldwide. Non-Hodgkin lymphomas (NHL) are a common, heterogeneous group of primarily (˜85%) B lymphoid cell neoplasms (NHL-B) arising in the B cell lineage of the human immune (lymphoid) system. NHL-Bs are the fifth most common cancer in the USA (˜65,000 new cases/25,000 deaths expected in 2010). Therefore, there is a great need for novel treatment strategies for this deadly cancer, particularly for relapsed/refractory lymphomas. Relapsed/refractory (r/rDLBCL) DLBCL is one of the most difficult scientific challenges and severe unmet therapeutic needs in clinical oncology today. This is due largely to very drug resistant tumor cells with very poor responses (<20% PR/CR) to current “salvage” therapies. Key pathways (NF-kB, AKT, STAT3), controlling cell growth/survival and chemoresistance in DLBCL have been discovered. Since natural compounds such as turmeric can target multiple pathways with low cellular toxicity, novel compounds with higher potency for cancer cells were sought. Initially, 6 novel turmeric analogues were designed and synthesized using cyclic thioketone and different substituted aromatic aldehydes. […] These compounds were named turmerax (TMX) (1-10), and tested them in the two resistant mantle cell lymphoma cell lines (Mino and Z-138). […] Turmerax compounds 1, 3, 5 and 9 were further analyzed at concentrations below 1 μM for cell growth inhibition in vitro. […] Next, the toxicity of these Turmerax compounds (1, 3, 5 and 9) was evaluated in normal human peripheral blood mononuclear cells (PBMC). […] The effectiveness of Turmerax compounds 1 and 5 in four MCL cell lines were examined, four LBCL cell lines (both ABC and GCB-type) and one follicular lymphoma cell line (CJ) in comparison to the wild type (natural) curcumin compound, to which these compounds bear some structural relatedness. The IC50 for Turmerax cmpds.

[2] = test system: MS cells; assay: Sensitivity of doxorubicin-resistant DLBCL cells; type: cell-based
Experimental: (§2) FIG. 7. TMX-1 Targets NF-kB and Key Signaling Pathways in DLBCL to Overcome Chemoresistance. Top left, DLBCL cells (MS) were transfect with the 6×-NF-kB-luciferase expression vector for 24 hrs. Transfected cells were treated with PBS (control) or Lipo-TMX-1 (100 nM) for 4 hrs. Cell lysates were used to analyzed for luciferase activity that was normalized with b-gal activity. Top right, TMX-1 inhibited NIK and pAKT in NHL-B cells. MS cells were treated with increasing doses of Lipo-TMX-1 (0-500 nM) for 24 hrs. NIK and pAKT protein expressions were determined by Western blotting. Bottom, Doxorubicin resistant cells are sensitive to TMX-1. MS cells are resistant to Dox, but are sensitive to TMX-1. McA DLBCL cells are sensitive to both doxorubicin and TMX-1.

[3] = test system: McA DLBCL cells; assay: Sensitivity of doxorubicin-sensitive DLBCL cells; type: cell-based
Experimental: as §2

[4] = test system: normal human peripheral blood mononuclear cells (PBMC); assay: Cytotoxicity in normal PBMC by thymidine incorporation; type: cell-based; details: minimal toxicity stated for drug concentration below 600 nM
From the text: FIG. 4. Effect of Turmerax compounds in normal peripheral blood mononuclear cells (PBMC). Turmeric analogues (1, 3, 5, and 9) were evaluate for cytoxicity in normal human peripheral blood mononuclear cells (PBMC) by thymidine incorporation assays.
Malignant lymphoma continues to represent a major health issue in the US and worldwide. Non-Hodgkin lymphomas (NHL) are a common, heterogeneous group of primarily (˜85%) B lymphoid cell neoplasms (NHL-B) arising in the B cell lineage of the human immune (lymphoid) system. NHL-Bs are the fifth most common cancer in the USA (˜65,000 new cases/25,000 deaths expected in 2010). Therefore, there is a great need for novel treatment strategies for this deadly cancer, particularly for relapsed/refractory lymphomas. Relapsed/refractory (r/rDLBCL) DLBCL is one of the most difficult scientific challenges and severe unmet therapeutic needs in clinical oncology today. This is due largely to very drug resistant tumor cells with very poor responses (<20% PR/CR) to current “salvage” therapies. Key pathways (NF-kB, AKT, STAT3), controlling cell growth/survival and chemoresistance in DLBCL have been discovered. Since natural compounds such as turmeric can target multiple pathways with low cellular toxicity, novel compounds with higher potency for cancer cells were sought. Initially, 6 novel turmeric analogues were designed and synthesized using cyclic thioketone and different substituted aromatic aldehydes. […] These compounds were named turmerax (TMX) (1-10), and tested them in the two resistant mantle cell lymphoma cell lines (Mino and Z-138). […] Turmerax compounds 1, 3, 5 and 9 were further analyzed at concentrations below 1 μM for cell growth inhibition in vitro. […] Next, the toxicity of these Turmerax compounds (1, 3, 5 and 9) was evaluated in normal human peripheral blood mononuclear cells (PBMC). […]

[5] = test system: NIK; assay: Western blotting of NIK in MS cells; type: cell-based; details: Lipo-TMX-1 0-500 nM, 24 hrs
Experimental: as §2

[6] = test system: pAKT; assay: Western blotting of pAKT in MS cells; type: cell-based; details: Lipo-TMX-1 0-500 nM, 24 hrs
Experimental: as §2

[7] = Water solubility, suspended in water for 24 hrs; type: physicochemical
From the text: FIG. 8. Water Solubility of Lipo-Turmerax-1 Compound. Liposomal TMX-1 and TMX-1 compounds were suspended in water for 24 hrs.
(§3) These formulations may be used in further clinical trials.

[8] = Bio-availability in vivo
From the text: as §3

[9] = test system: melanoma, gastric, pancreatic, and glioma cancer cell lines; assay: MTT cell growth inhibition in NF-kB-associated solid tumor cancer cell lines; type: cell-based
From the text: FIG. 11. Effect of TMX-1 in NF-kB-Associated Cancers. Representative cancer cell lines for melanoma, gastric, pancreatic, and glioma were used to analyzed for cell growth inhibition activity of TMX-1 using MTT assays.
as §3

[10] = test system: LY10 cells; assay: Annexin V apoptosis assay; type: cell-based; details: 500 nM drug concentration, 24 hrs
Experimental: (§4) FIGS. 12A-C. TMX-1 induces apoptosis in lymphoma cells. (FIG. 12A) A representative lymphoma cell line (LY10) was treated with TMX-1 in a dose-dependent manner for 24 hrs. Apoptosis was determined by Annexin V assays. (FIG. 12B) TMX-1 activates phospho-H2AX (DNA damage marker) and induces bcl-2 cleaving in lymphoma cells. (FIG. 12C) A representative DLBCL cell line (MS) was transfected with a NF-kB-luciferase reporter for 24 hrs. Cells were treated with TMX-1 as indicated.
(§5) To determine whether TMX-1 can induce apoptosis in lymphoma cells, we treated a diffuse large cell lymphoma (DLBCL) cell line (LY-10) with TMX-1 in a dose-dependent manner for 24 hrs. Control and treated cells were analyzed for apoptosis using Annexin V assays. […] Next, we test whether TMX-1 can induces DNA damage in LY-10 cells. […] The inventors also examined whether TMX-1 can inhibit NF-kB activity in lymphoma cells. For these studies, a DLBCL cell line (MS) was transfected with a NF-kB luciferase reporter for 24 hrs, at which time cells were treated with TMX-1 in a dose- and time-dependent manner. […] There are many NF-kB inhibitors commercially available that have been tested in many cancer systems, but none has ever reached the clinic to cancer treatment. The reason for this is typically because these agents usually target upstream of NF-kB signaling pathways, leading to many unwanted side effects.

[11] = test system: pH2AX; assay: DNA damage marker in LY-10 cells; type: cell-based
Experimental: as §4, §5

[12] = test system: bcl-2; assay: bcl-2 cleaving in LY-10 cells; type: cell-based
Experimental: as §4, §5

[13] = test system: human DLBCL cell lines (Dox-sensitive and Dox-resistant); assay: 72-hr proliferation assays in doxorubicin-sensitive and -resistant DLBCL cell lines; type: cell-based
Experimental: FIGS. 13A-B. TMX-1 inhibits DLBCL cell proliferation. (FIG. 13A) 24 representative DLBCL cell lines were treated with TMX-1 in dose-dependent manner and analyzed by thymidine incorporation assays for cell growth inhibition. (FIG. 13B) Effect of TMX-1 in doxorubicin highly sensitive and highly resistant DLBCL cell lines (Pham et al., 2011).
DLBCL are currently initially treated fairly successfully with R-CHOP frontline chemotherapy (˜70-80% initial remission rate), but relapsed/refractory DLBCL occurs frequently (˜40% within 2-3 yrs), with very poor salvage therapy options (˜20% PR/CR). A unique repertoire of human DLBCL cell lines were developed (Ford et al., 1990; Pham et al., 2010) that can be classified into two subgroups, doxorubicin (a key component in CHOP)-sensitive and doxorubicin-resistant. These cell lines were screened against TMX-1 in a dose-dependent manner using 72-hr proliferation assays (FIG. 13A).

[14] = test system: DLBCL cell line (TJ); assay: Combination cell proliferation assays in DLBCL cell line (TJ); type: cell-based; details: TJ cells
Experimental: FIGS. 14A-B. A representative DLBCL cell line (TJ) was treated with TMX-1 in a dose-dependent manner alone or in combination with Ibrutinib (IB) and carfilzomib (CFZ) and cell proliferation assays were analyzed.
Recent molecularly targeted therapy, as opposed to classic chemotherapy, has improved the treatment of lymphoid malignancies. At the forefront of clinical development are ibrutinib, an inhibitor of Bruton's tyrosine kinase (btk) and carfilzomib (CFZ), a second-generation proteasome inhibitor.

[15] = Mino and Z-138, doses 0-25 μM, thymidine incorporation, read-out: IC50, cell growth inhibition
[16] = further analyzed at concentrations below 1 μM, read-out: IC50, cell growth inhibition

Structure (SMILES): O=C1/C(=C/c2ccc(Cl)c([N+](=O)[O-])c2)CSC/C1=C\c1ccc(Cl)c([N+](=O)[O-])c1 [Turmerax 5, 3,5-bis[(3-nitro-4-chlorophenyl)methylene]-tetrahydrothiopyran-4-one]
IC50 [1, 15]: < 1000 nM
IC50 [1, 16]: 100 to 200 nM

Structure (SMILES): COc1cccc2c1C(=O)c1c(O)c3c(c(O)c1C2=O)C[C@@](O)(C(=O)CO)C[C@@H]3O[C@H]1C[C@H](N)[C@H](O)[C@H](C)O1 [doxorubicin, reference compound]
sensitivity of MS cells [2]: resistant
sensitivity of McA DLBCL cells [3]: sensitive

Structure (SMILES): O=C1/C(=C/c2ccc(Cl)c(Cl)c2)CSC/C1=C\c1ccc(Cl)c(Cl)c1 [Turmerax 2, 3,5-bis[(3,4-dichlorophenyl)methylene]-tetrahydrothiopyran-4-one]
IC50 [1, 15]: 3000 to 10000 nM

Structure (SMILES): O=C1/C(=C/c2ccc([N+](=O)[O-])c(O)c2)CSC/C1=C\c1ccc([N+](=O)[O-])c(O)c1 [Turmerax 3, 3,5-bis[(3-hydroxy-4-nitrophenyl)methylene]-tetrahydrothiopyran-4-one]
IC50 ([1]; read-out: IC50, cell growth inhibition, Mino and Z-138, doses 0-25 μM, thymidine incorporation): < 1000 nM
IC50 ([1]; read-out: IC50, cell growth inhibition, further analyzed at concentrations below 1 μM): 200 to 800 nM
toxicity to PBMC [4]: only minimal cell toxicity

Structure (SMILES): N#Cc1ccc(/C=C2\CSC/C(=C\c3ccc(C#N)cc3)C2=O)cc1 [Turmerax 9]
IC50 [1, 15]: < 1000 nM
IC50 [1, 16]: 200 to 800 nM
toxicity to PBMC [4]: some toxicity

Structure (SMILES): N#Cc1cccc(/C=C2\CSC/C(=C\c3cccc(C#N)c3)C2=O)c1 [Turmerax 1, 3,5-bis[(3-cyanophenyl)methylene]-tetrahydrothiopyran-4-one]
IC50 [1, 15]: < 1000 nM
IC50 [1, 16]: 100 to 200 nM
toxicity to PBMC [4]: only minimal cell toxicity
NIK protein expression [5]: inhibited
pAKT protein expression [6]: inhibited
sensitivity of MS cells [2]: sensitive
sensitivity of McA DLBCL cells [3]: sensitive
precipitation in water [7]: shows precipitation
bio-availability [8]: reduced bio-availability
inhibition of solid tumor cancer cells [9]: highly effective
apoptosis induced [10]: up to 80%
pH2AX (DNA damage marker) [11]: significantly increased
bcl-2 anti-apoptotic protein [12]: cleaved
activity in Dox-sensitive vs. Dox-resistant DLBCL cell lines [13]: equivalent
effectiveness of combination with ibrutinib compared with combination with CFZ [14]: more effective than TMX-1 in combination with CFZ
interaction with ibrutinib in inhibiting lymphoma cell growth [14]: highly synergistic

Other lines, results leading:

IC50 [1, 15]: 3000 to 10000 nM
Structure (SMILES): CCOC(=O)c1ccc(/C=C2\CSC/C(=C\c3ccc(C(=O)OCC)cc3)C2=O)cc1 [Turmerax 6, 3,5-bis[(4-ethoxycarbonylphenyl)methylene]-tetrahydrothiopyran-4-one]

IC50 [1, 15]: > 25000 nM
Structure (SMILES): COc1ccc(/C=C2\CSC/C(=C\c3ccc(OC)c(OC)c3OC)C2=O)c(OC)c1OC [Turmerax 4, 3,5-bis[(2,3,4-trimethoxyphenyl)methylene]-tetrahydrothiopyran-4-one]

IC50 [1, 15]: 3000 to 10000 nM
Structure (SMILES): O=C1/C(=C/c2ccc(Br)cc2)CSC/C1=C\c1ccc(Br)cc1 [Turmerax 10, 3,5-bis[(4-bromophenyl)methylene]-tetrahydrothiopyran-4-one]

IC50 [1, 15]: > 25000 nM
Structure (SMILES): COc1ccc(/C=C2\CSC/C(=C\c3ccc(OC)c(C)c3C)C2=O)c(C)c1C [Turmerax 7, 3,5-bis[(3,4-dimethyl-4-methoxyphenyl)methylene]-tetrahydrothiopyran-4-one]

IC50 [1, 15]: > 25000 nM
Structure (SMILES): O=C1/C(=C/c2c(F)ccc(Cl)c2F)CSC/C1=C\c1c(F)ccc(Cl)c1F [Turmerax 8, 3,5-bis[(2,6-difluoro-3-chlorophenyl)methylene]-tetrahydrothiopyran-4-one]
